These results are taken from patent publication US5780441A, “Sphingoglycolipid compounds and therapeutic uses thereof” (Kirin Beer Kabushiki Kaisha, priority 1993, dated 1998).

In test [1] the test system is P388 mouse leukemia cells. The test can be described thus: Life-span-prolonging (anti-tumor) effect on mice subcutaneously inoculated with P388 mouse leukemia cells. Format: in vivo, mouse (CDF1 female). To be noted: 0.1 mg/kg i.v. on days 1, 5 and 9; for Survival days ave. ± s. d.: all marked ** (p < 0.01); for response vs control in vivo at 0.1 mg/kg: Mus musculus, P388, iv, survival vs vehicle, read-out: T/C (%). The protocol: i) Anti-tumor effect of the compound of the present invention on mice subcutaneously inoculated with P388 mouse leukemia cells.
Experiment was performed with CDF1 female mice (6 weeks) purchased from NIPPON SLC K.K., which were divided into groups consisting of 5 animals. […]. In this connection, lentinan and picibanil were administered intravenously on days 1, 3, 5, 7 and 9 after implantation, and sizofilan was administered subcutaneously on days 1 through 9. Statistical analysis was performed according to the Mann-Whiteney test.

For test [2], the system named is mixed lymphocyte culture reaction (spleen cells of C57BL/6 and BALB/C mice). The test can be described thus: Mixed lymphocyte culture reaction (MLR). To be noted: Mus musculus, Lymphocyte, 42 hours, read-out: MLR activating rate (%); for activity at 1 µg/mL: 1 × 10^0 μg/ml; for activity at 0.1 µg/mL: 1 × 10^-1 μg/ml. Type of test: cell-based, mouse (C57BL/6 stimulator, BALB/C responder). The protocol: ii) Mixed lymphocyte culture reaction (MLR) of the compounds of the present invention
Spleen cells were prepared from C57BL/6 mice and treated with 50 μg/ml of mitomycin C for 30 minutes. The treated cells were used as stimulator cells, and the spleen cells of BALB/C mice as responder cells. 2×10^6 cells/ml of the both spleen cells were suspended in 10% FCS RPMI1640 as a culture medium. The above-described cells (50 μl/well) and a sample (10 μl/well) were added into wells of a round-bottomed 96 well plate, and cultured under the condition of 5% CO2 at 37° C. for 42 hours. 0.5 μCi/well of ^3 H-thymidine (^3 H-TdR) was added. After 8 hours, the cells were harvested, and the amount of uptaken ^3 H-TdR was measured by a liquid scintillation counter to calculate the ratio (%) of the uptake of ^3 H-TdR in the sample group to that in the vehicle group as the MLR activating rate.

The subject of another test is mouse bone marrow cells. The test can be described thus: In vitro mouse bone marrow cell-proliferation-promoting effect (3H-TdR uptake). To be noted: Mus musculus, Bone marrow cell, 96 h, 4 days, read-out: Uptake of 3H-TdR (% of control), bone marrow cells; for activity at 0.1 µg/mL: 10^-1 μg/ml; for activity at 0.01 µg/mL: 10^-2 μg/ml. Type of test: cell-based, mouse (BDF1 female). On the procedure:
In vitro mouse bone marrow cell-proliferation-promoting effect of the present compound
Experiment was performed with BDF1 female mice (6 weeks old) purchased from NIPPON SLC K.K. Bone marrow cells were removed from the femoral bone of mice by the conventional manner, floated on 10% FCS RPMI 1640, layered over Lympholite M, and centrifuged to give a monocyte fraction. 1×10^6 cells/ml of the monocyte fraction was suspended in 10% FCS RPMI 1640. The cell suspension (100 μl/well) and a vehicle or sample (10 μl/well) which was prepared so as to have a final level shown in Table 2 were added into a wells of round-bottomed 96 well plate, and cultured under the condition of 5% CO2 at 37° C. for 4 days. 0.5 μCi/well of ^3 H-thymidine (^3 H-TdR) was added. After 6 hours, the cells were harvested, and the amount of ^3 H-TdR uptaken into nucleus was measured by a liquid scintillation counter. The ratio of the uptake of ^3 H-TdR in the sample group to that in the vehicle group was calculated and used as the activation rate for promoting in vitro mouse bone marrow cell growth.

A further test has as its system mouse splenic lymphocyte. The test can be described thus: In vitro mouse splenic lymphocyte-proliferation-stimulating effect (3H-TdR uptake). Type of test: cell-based, mouse (BDF1 female). The following applies: Mus musculus, Splenic lymphocyte, 48 h, 2 days, read-out: Uptake of 3H-TdR (% of control), splenic lymphocytes; for activity at 1 µg/mL: 10^0 μg/ml; for activity at 0.1 µg/mL: 10^-1 μg/ml; for activity at 0.01 µg/mL: 10^-2 μg/ml; for activity at 0.001 µg/mL: 10^-3 μg/ml. On the procedure:
i) In vitro mouse splenic lymphocyte growth promoting effects of the present compounds
Experiment was performed with BDF1 female mice (6 weeks old) purchased from NIPPON SLC K.K. Spleens were removed from mice, and spleen cells were brayed with slide glasses and hemolized with NH4 Cl. 2×10^6cells/ml of the spleen cells which had been hemolized were suspended in 10% FCS RPMI 1640. The cell suspension (100 μl/well) and a vehicle or sample (10 μl/well) which was prepared so as to have a final level shown in Table 3 were added into wells of a round-bottomed 96 well plate, and cultured under the condition of 5% CO2 at 37° C. for 2 days. 0.5 μCi/well of ^3 H-thymidine (^3 H-TdR) was added. After 6 hours, the cells were harvested, and the amount of ^3 H-TdR uptaken into nucleus was measured by a liquid scintillation counter. The ratio (%) of the uptake of ^3 H-TdR in the sample group to that in the vehicle group was calculated and used as the in vitro mouse splenic lymphocyte-proliferation-stimulating rate.

Regarding `CCCCCCCCCCCCCCCCCCCC[C@@H](O)C(=O)N[C@@H](CO[C@H]1O[C@H](CO)[C@H](O)[C@H](O[C@@H]2O[C@@H]([C@H](O)CO)[C@H](O)[C@H]2O)[C@H]1O)[C@H](O)[C@H](O)CCCCCCCCCCCC` [Compound 10, O-β-D-galactofuranosyl-(1→3)-O-α-D-galactopyranosyl-(1→1)-(2S,3S,4R)-2-amino-N-[(R)-2-hydroxydocosanoyl]-1,3,4-hexadecanetriol], in test [1], the “Survival days ave. ± s. d.” value is 13.8 ± 0.4 days and the response vs control in vivo at 0.1 mg/kg turned out to be 108%. Moreover, in test [2], the activity at 1 µg/mL came to 174% and the activity at 0.1 µg/mL was determined as 132%. Further, in the test on mouse bone marrow cells, the activity at 0.1 µg/mL stood at 286% and the activity at 0.01 µg/mL worked out at 147%. Further, in the test with mouse splenic lymphocyte, the activity at 1 µg/mL was 509%, the activity at 0.1 µg/mL turned out to be 375%, the activity at 0.01 µg/mL turned out to be 277% and the activity at 0.001 µg/mL was 102%.
As to `CCCCCCCCCCCCCCCCCCCCC[C@@H](O)C(=O)N[C@@H](CO[C@H]1O[C@H](CO)[C@H](O)[C@H](O[C@@H]2O[C@@H]([C@H](O)CO)[C@H](O)[C@H]2O)[C@H]1O)[C@H](O)[C@H](O)CCCCCCCCCCCC` [Compound 11, O-β-D-galactofuranosyl-(1→3)-O-α-D-galactopyranosyl-(1→1)-(2S,3S,4R)-2-amino-N-[(R)-2-hydroxytricosanoyl]-1,3,4-hexadecanetriol], in test [1], the “Survival days ave. ± s. d.” value turned out to be 13.4 ± 0.5 days and the response vs control in vivo at 0.1 mg/kg was 105%. Also, in test [2], the activity at 1 µg/mL was 225% and the activity at 0.1 µg/mL stood at 258%. In the test with mouse bone marrow cells, the activity at 0.1 µg/mL is 410% and the activity at 0.01 µg/mL came to 281%. Besides, in the test with mouse splenic lymphocyte, the activity at 1 µg/mL stood at 646%, the activity at 0.01 µg/mL amounted to 858% and the activity at 0.001 µg/mL came to 116%.
Turning to `CCCCCCCCCCCCCCCCCCCCCC[C@@H](O)C(=O)N[C@@H](CO[C@H]1O[C@H](CO)[C@H](O)[C@H](O[C@@H]2O[C@@H]([C@H](O)CO)[C@H](O)[C@H]2O)[C@H]1O)[C@H](O)[C@H](O)CCCCCCCCCCCC` [Compound 12, O-β-D-galactofuranosyl-(1→3)-O-α-D-galactopyranosyl-(1→1)-(2S,3S,4R)-2-amino-N-[(R)-2-hydroxytetracosanoyl]-1,3,4-hexadecanetriol], in test [1], the “Survival days ave. ± s. d.” value is 13.8 ± 0.8 days and the response vs control in vivo at 0.1 mg/kg was 108%. Further, in test [2], the activity at 1 µg/mL amounted to 203% and the activity at 0.1 µg/mL was 187%. Further, in the test on mouse bone marrow cells, the activity at 0.1 µg/mL was 381% and the activity at 0.01 µg/mL came to 378%. Also, in the test with mouse splenic lymphocyte, the activity at 1 µg/mL was 509%, the activity at 0.1 µg/mL was found to be 982%, the activity at 0.01 µg/mL stood at 772% and the activity at 0.001 µg/mL is 113%.
As to `CCCCCCCCCCCCCCCCCCCCCC[C@@H](O)C(=O)N[C@@H](CO[C@H]1O[C@H](CO)[C@H](O)[C@H](O[C@@H]2O[C@@H]([C@H](O)CO)[C@H](O)[C@H]2O)[C@H]1O)[C@H](O)[C@H](O)CCCCCCCCCCC(C)C` [Compound 13, O-β-D-galactofuranosyl-(1→3)-O-α-D-galactopyranosyl-(1→1)-(2S,3S,4R)-2-amino-N-[(R)-2-hydroxytetracosanoyl]-15-methyl-1,3,4-hexadecanetriol], in test [1], the “Survival days ave. ± s. d.” value was determined as 14.6 ± 0.5 days and the response vs control in vivo at 0.1 mg/kg came to 114%. Besides, in test [2], the activity at 1 µg/mL turned out to be 276% and the activity at 0.1 µg/mL was 248%. For the same compound, in the test on mouse bone marrow cells, the activity at 0.1 µg/mL was 546% and the activity at 0.01 µg/mL was 395%. In the test on mouse splenic lymphocyte, the activity at 1 µg/mL is 788% and the activity at 0.001 µg/mL is 227%.
For `CCCCCCCCCCCCCCCCCCCCCC[C@@H](O)C(=O)N[C@@H](CO[C@H]1O[C@H](CO)[C@H](O)[C@H](O[C@@H]2O[C@@H]([C@H](O)CO)[C@H](O)[C@H]2O)[C@H]1O)[C@H](O)[C@H](O)CCCCCCCCCCCCC` [Compound 14, O-β-D-galactofuranosyl-(1→3)-O-α-D-galactopyranosyl-(1→1)-(2S,3S,4R)-2-amino-N-[(R)-2-hydroxytetracosanoyl]-1,3,4-heptadecanetriol], in test [1], the “Survival days ave. ± s. d.” value stood at 13.8 ± 0.4 days and the response vs control in vivo at 0.1 mg/kg stood at 108%. For the same compound, in test [2], the activity at 1 µg/mL is 261% and the activity at 0.1 µg/mL came out at 232%. Besides, in the test with mouse bone marrow cells, the activity at 0.1 µg/mL turned out to be 838% and the activity at 0.01 µg/mL amounted to 659%. Moreover, in the test with mouse splenic lymphocyte, the activity at 1 µg/mL was determined as 640% and the activity at 0.001 µg/mL worked out at 252%.
Consider `CCCCCCCCCCCCCCCCCCCCCC[C@@H](O)C(=O)N[C@@H](CO[C@H]1O[C@H](CO)[C@H](O)[C@H](O[C@@H]2O[C@@H]([C@H](O)CO)[C@H](O)[C@H]2O)[C@H]1O)[C@H](O)[C@H](O)CCCCCCCCCCCC(C)C` [Compound 15, O-β-D-galactofuranosyl-(1→3)-O-α-D-galactopyranosyl-(1→1)-(2S,3S,4R)-2-amino-N-[(R)-2-hydroxytetracosanoyl]-16-methyl-1,3,4-heptadecanetriol], for which, in test [1], the “Survival days ave. ± s. d.” value is recorded as 14.0 ± 0 days and the response vs control in vivo at 0.1 mg/kg turned out to be 109%. Besides, in test [2], the activity at 1 µg/mL was 295% and the activity at 0.1 µg/mL came to 253%. Besides, in the test on mouse bone marrow cells, the activity at 0.1 µg/mL turned out to be 501% and the activity at 0.01 µg/mL amounted to 291%. Also, in the test on mouse splenic lymphocyte, the activity at 1 µg/mL came out at 845% and the activity at 0.001 µg/mL worked out at 394%.
In the case of `CCCCCCCCCCCCCCCCCCCCCC[C@@H](O)C(=O)N[C@@H](CO[C@H]1O[C@H](CO)[C@H](O)[C@H](O[C@@H]2O[C@@H]([C@H](O)CO)[C@H](O)[C@H]2O)[C@H]1O)[C@H](O)[C@H](O)CCCCCCCCCCCCCC` [Compound 16, O-β-D-galactofuranosyl-(1→3)-O-α-D-galactopyranosyl-(1→1)-(2S,3S,4R)-2-amino-N-[(R)-2-hydroxytetracosanoyl]-1,3,4-octadecanetriol], in test [1], the “Survival days ave. ± s. d.” value came out at 14.8 ± 0.8 days and the response vs control in vivo at 0.1 mg/kg was 116%. Moreover, in test [2], the activity at 1 µg/mL was found to be 274% and the activity at 0.1 µg/mL turned out to be 262%. Moreover, in the test on mouse bone marrow cells, the activity at 0.1 µg/mL came to 325% and the activity at 0.01 µg/mL was determined as 296%. Further, in the test on mouse splenic lymphocyte, the activity at 1 µg/mL came out at 740% and the activity at 0.001 µg/mL was determined as 702%.
